From the NIST ThermoML archive (doi:10.1016/j.jct.2008.01.018)

Experiment: mn = molality of the nth substance listed, in mol/kg
Settings: 101 kPa, Liquid; for speed of sound: Sing-around technique in a fixed-path interferometer; for molar conductivity: Alternating current cell with electrodes

O=P([O-])(O)O.[Na+] [sodium dihydrogen phosphate] + O
Settings | mass density [kg/m3] | molar conductivity [S·m2/mol] | speed of sound [m/s]
283.15 K, m1 = 0.0343 | 1002.89 | – | 1451.8
283.15 K, m1 = 0.0484 | 1004.16 | – | 1453.5
283.15 K, m1 = 0.1399 | 1012.4 | – | 1463.6
283.15 K, m1 = 0.167 | 1014.82 | – | 1466.5
283.15 K, m1 = 0.1967 | 1017.47 | – | 1469.7
283.15 K, m1 = 0.2231 | 1019.84 | – | 1472.6
283.15 K, m1 = 0.2506 | 1022.23 | – | 1475.5
283.15 K, m1 = 0.3229 | 1028.59 | – | 1483.2
283.15 K, m1 = 0.3586 | 1031.67 | – | 1486.9
283.15 K, m1 = 0.4346 | 1038.07 | – | 1494.7
283.15 K, m1 = 0.5108 | 1044.45 | – | 1502.2
283.15 K, m1 = 0.5812 | 1050.36 | – | 1509.2
283.15 K, m1 = 0.6658 | 1057.33 | – | 1517.5
283.15 K, m1 = 0.7462 | 1063.82 | – | 1525.3
283.15 K, m1 = 0.9163 | 1077.42 | – | 1541.5
283.15 K, m1 = 1.093 | 1091.46 | – | 1558.4
283.15 K, m1 = 1.262 | 1104.21 | – | 1573.7
283.15 K, m1 = 1.451 | 1117.95 | – | 1590.5
283.15 K, m1 = 1.758 | 1139.71 | – | 1617
283.15 K, m1 = 2.041 | 1159.21 | – | 1641.2
283.15 K, m1 = 2.374 | 1181.48 | – | 1669.2
283.15 K, m1 = 2.747 | 1205.29 | – | 1699.5
283.15 K, m1 = 3.115 | 1226.77 | – | 1727.2
283.15 K, m1 = 3.512 | 1250.32 | – | 1758.2
288.15 K, m1 = 0.0343 | 1002.25 | – | 1470
288.15 K, m1 = 0.0484 | 1003.5 | – | 1471.6
288.15 K, m1 = 0.1399 | 1011.65 | – | 1481.2
288.15 K, m1 = 0.167 | 1014.03 | – | 1484.1
288.15 K, m1 = 0.1967 | 1016.66 | – | 1487.2
288.15 K, m1 = 0.2231 | 1019 | – | 1490
288.15 K, m1 = 0.2506 | 1021.37 | – | 1492.8
288.15 K, m1 = 0.3229 | 1027.65 | – | 1500.2
288.15 K, m1 = 0.3586 | 1030.7 | – | 1503.7
288.15 K, m1 = 0.4346 | 1037.04 | – | 1511.1
288.15 K, m1 = 0.5108 | 1043.36 | – | 1518.4
288.15 K, m1 = 0.5812 | 1049.21 | – | 1525.2
288.15 K, m1 = 0.6658 | 1056.12 | – | 1533.1
288.15 K, m1 = 0.7462 | 1062.54 | – | 1540.5
288.15 K, m1 = 0.9163 | 1076.03 | – | 1556.1
288.15 K, m1 = 1.093 | 1089.96 | – | 1572.3
288.15 K, m1 = 1.262 | 1102.62 | – | 1587
288.15 K, m1 = 1.451 | 1116.26 | – | 1602.9
288.15 K, m1 = 1.758 | 1137.89 | – | 1628.3
288.15 K, m1 = 2.041 | 1157.28 | – | 1651.4
288.15 K, m1 = 2.374 | 1179.42 | – | 1678.2
288.15 K, m1 = 2.747 | 1203.12 | – | 1707.2
288.15 K, m1 = 3.115 | 1224.51 | – | 1733.6
288.15 K, m1 = 3.512 | 1247.97 | – | 1763.3
293.15 K, m1 = 0.0343 | 1001.32 | – | 1486
293.15 K, m1 = 0.0484 | 1002.56 | – | 1487.6
293.15 K, m1 = 0.1399 | 1010.62 | – | 1496.9
293.15 K, m1 = 0.167 | 1012.98 | – | 1499.7
293.15 K, m1 = 0.1967 | 1015.58 | – | 1502.7
293.15 K, m1 = 0.2231 | 1017.9 | – | 1505.3
293.15 K, m1 = 0.2506 | 1020.25 | – | 1508
293.15 K, m1 = 0.3229 | 1026.47 | – | 1515.1
293.15 K, m1 = 0.3586 | 1029.5 | – | 1518.5
293.15 K, m1 = 0.4346 | 1035.78 | – | 1525.6
293.15 K, m1 = 0.5108 | 1042.04 | – | 1532.6
293.15 K, m1 = 0.5812 | 1047.85 | – | 1539.1
293.15 K, m1 = 0.6658 | 1054.7 | – | 1546.8
293.15 K, m1 = 0.7462 | 1061.08 | – | 1553.9
293.15 K, m1 = 0.9163 | 1074.46 | – | 1568.9
293.15 K, m1 = 1.093 | 1088.3 | – | 1584.3
293.15 K, m1 = 1.262 | 1100.87 | – | 1598.5
293.15 K, m1 = 1.451 | 1114.43 | – | 1613.8
293.15 K, m1 = 1.758 | 1135.93 | – | 1638.1
293.15 K, m1 = 2.041 | 1155.22 | – | 1660.2
293.15 K, m1 = 2.374 | 1177.26 | – | 1685.9
293.15 K, m1 = 2.747 | 1200.86 | – | 1713.7
293.15 K, m1 = 3.115 | 1222.16 | – | 1739
293.15 K, m1 = 3.512 | 1245.55 | – | 1767.4
298.15 K, m1 = 0.0207 | – | 0.00762 | –
298.15 K, m1 = 0.0343 | 1000.13 | – | 1500.2
298.15 K, m1 = 0.0415 | – | 0.00723 | –
298.15 K, m1 = 0.0484 | 1001.36 | – | 1501.7
298.15 K, m1 = 0.0697 | – | 0.00683 | –
298.15 K, m1 = 0.1051 | – | 0.00655 | –
298.15 K, m1 = 0.1397 | – | 0.00634 | –
298.15 K, m1 = 0.1399 | 1009.35 | – | 1510.6
298.15 K, m1 = 0.167 | 1011.69 | – | 1513.2
298.15 K, m1 = 0.1901 | – | 0.0061 | –
298.15 K, m1 = 0.1967 | 1014.27 | – | 1516.2
298.15 K, m1 = 0.2231 | 1016.57 | – | 1518.7
298.15 K, m1 = 0.2357 | – | 0.0059 | –
298.15 K, m1 = 0.2506 | 1018.89 | – | 1521.3
298.15 K, m1 = 0.2947 | – | 0.00572 | –
298.15 K, m1 = 0.3229 | 1025.07 | – | 1528.2
298.15 K, m1 = 0.3516 | – | 0.00553 | –
298.15 K, m1 = 0.3586 | 1028.07 | – | 1531.5
298.15 K, m1 = 0.433 | – | 0.00533 | –
298.15 K, m1 = 0.4346 | 1034.3 | – | 1538.3
298.15 K, m1 = 0.5108 | 1040.52 | – | 1545
298.15 K, m1 = 0.5113 | – | 0.00517 | –
298.15 K, m1 = 0.5812 | 1046.29 | – | 1551.3
298.15 K, m1 = 0.5842 | – | 0.00496 | –
298.15 K, m1 = 0.653 | – | 0.00484 | –
298.15 K, m1 = 0.6658 | 1053.09 | – | 1558.7
298.15 K, m1 = 0.6999 | – | 0.00475 | –
298.15 K, m1 = 0.7462 | 1059.42 | – | 1565.5
298.15 K, m1 = 0.7919 | – | 0.00457 | –
298.15 K, m1 = 0.9163 | 1072.73 | – | 1579.9
298.15 K, m1 = 0.9206 | – | 0.00436 | –
298.15 K, m1 = 1.093 | 1086.48 | – | 1594.8
298.15 K, m1 = 1.175 | – | 0.00398 | –
298.15 K, m1 = 1.18 | – | 0.00398 | –
298.15 K, m1 = 1.262 | 1098.98 | – | 1608.4
298.15 K, m1 = 1.447 | – | 0.00367 | –
298.15 K, m1 = 1.451 | 1112.46 | – | 1623.1
298.15 K, m1 = 1.758 | 1133.86 | – | 1646.4
298.15 K, m1 = 1.794 | – | 0.00329 | –
298.15 K, m1 = 2.041 | 1153.06 | – | 1667.7
298.15 K, m1 = 2.079 | – | 0.00303 | –
298.15 K, m1 = 2.374 | 1175 | – | 1692.3
298.15 K, m1 = 2.396 | – | 0.00276 | –
298.15 K, m1 = 2.398 | – | 0.00278 | –
298.15 K, m1 = 2.747 | 1198.51 | – | 1718.9
298.15 K, m1 = 3.115 | 1219.74 | – | 1743.2
298.15 K, m1 = 3.512 | 1243.05 | – | 1770.5
303.15 K, m1 = 0.0343 | 998.703 | – | 1512.4
303.15 K, m1 = 0.0484 | 999.924 | – | 1513.9
303.15 K, m1 = 0.1399 | 1007.86 | – | 1522.5
303.15 K, m1 = 0.167 | 1010.18 | – | 1525.1
303.15 K, m1 = 0.1967 | 1012.74 | – | 1527.9
303.15 K, m1 = 0.2231 | 1015.02 | – | 1530.4
303.15 K, m1 = 0.2506 | 1017.33 | – | 1532.9
303.15 K, m1 = 0.3229 | 1023.47 | – | 1539.5
303.15 K, m1 = 0.3586 | 1026.45 | – | 1542.6
303.15 K, m1 = 0.4346 | 1032.64 | – | 1549.3
303.15 K, m1 = 0.5108 | 1038.82 | – | 1555.8
303.15 K, m1 = 0.5812 | 1044.55 | – | 1561.8
303.15 K, m1 = 0.6658 | 1051.31 | – | 1568.9
303.15 K, m1 = 0.7462 | 1057.61 | – | 1575.5
303.15 K, m1 = 0.9163 | 1070.83 | – | 1589.4
303.15 K, m1 = 1.093 | 1084.51 | – | 1603.7
303.15 K, m1 = 1.262 | 1096.94 | – | 1616.8
303.15 K, m1 = 1.451 | 1110.36 | – | 1631
303.15 K, m1 = 1.758 | 1131.66 | – | 1653.4
303.15 K, m1 = 2.041 | 1150.78 | – | 1673.9
303.15 K, m1 = 2.374 | 1172.65 | – | 1697.5
303.15 K, m1 = 2.747 | 1196.07 | – | 1723.2
303.15 K, m1 = 3.115 | 1217.23 | – | 1746.5
303.15 K, m1 = 3.512 | 1240.48 | – | 1772.8
